# Assays:
# CTGF gene expression = assay: Evaluation II: TGF-β-induced gene expression of fibrosis-related factors in NHLF cells: CTGF; assay type: cell-based, human; settings: 30 μM test substance, 200 μg/mL pirfenidone, 30 μM DEX, 1.0 μM TPCA-1 or 10 μM FP 2 hours, then TGF-β 0.5 ng/mL 4 hours, n = 4
# Procedure: (§1) NHLF cells were sown so as to make their amount 5×10^4 cells/well to each well of a 12-well plate and incubated to an extent of 80% confluent in a medium where fibroblast growth medium 2 supplement mix (FGM-2 SingleQuots, Lonza) was added to a fibroblast basal medium (FBM, Lonza). After that, incubation was conducted for 2 hours in a DMEM medium containing 30 μM of a test substance, 200 μg/mL of pirfenidone, 30 μM of dexamethasone (DEX), 1.0 μM of TPCA-1 or 10 μM of fluticasone propionate (FP) and, after TGF-β was added thereto so as to make its final concentration 0.5 ng/mL, incubation was carried out for 4 hours more.
# (§2) With regard to the extraction of RNA from NHLF cells, the synthesis of cDNA from RNA and the action of the test substance to gene expression of fibrosis-related factors [CFGF, TGF-β1, fibronectin and Col 1], the tests were carried out in the same manners as in (2) and (3) of the above Test Example 3.
# [1] = tested on: fibronectin gene expression; assay: Evaluation II: TGF-β-induced gene expression of fibrosis-related factors in NHLF cells: fibronectin; assay type: cell-based, human; settings: 30 μM test substance, 200 μg/mL pirfenidone, 30 μM DEX, 1.0 μM TPCA-1 or 10 μM FP 2 hours, then TGF-β 0.5 ng/mL 4 hours, n = 4
# Procedure: as §1, §2
# Col 1 gene expression = assay: Evaluation II: TGF-β-induced gene expression of fibrosis-related factors in NHLF cells: Col 1; assay type: cell-based, human; settings: 30 μM test substance, 200 μg/mL pirfenidone, 30 μM DEX, 1.0 μM TPCA-1 or 10 μM FP 2 hours, then TGF-β 0.5 ng/mL 4 hours, n = 4
# Procedure: as §1, §2
# TGF-β1 gene expression = assay: Evaluation II: TGF-β-induced gene expression of fibrosis-related factors in NHLF cells: TGF-β1; assay type: cell-based, human; settings: 30 μM test substance, 200 μg/mL pirfenidone, 30 μM DEX, 1.0 μM TPCA-1 or 10 μM FP 2 hours, then TGF-β 0.5 ng/mL 4 hours, n = 4
# Procedure: as §1, §2
# [2] = tested on: mice where pulmonary fibrosis was induced by bleomycin; assay: Lung wet weight increase of mice where pulmonary fibrosis was induced by bleomycin; assay type: in vivo; settings: ICR male mice, bleomycin 2 mg/kg i.v. 5 days; test substance 50 mg/kg or pirfenidone 200 mg/kg per os twice daily for 2 weeks; normal control 205, diseased control 303
# Procedure: Bleomycin (2 mg/kg) was repeatedly injected intravenously for 5 days to ICR male mice. The mice were organized into 4 groups of normal control group, diseased control group, test substance-administered group and pirfenidone-administered group.
# A test substance was suspended in 0.5 w/v % carboxymethyl cellulose sodium (CMC) and 50 mg/kg thereof was repeatedly administered per os with stirring twice daily for 2 weeks using an oral sonde for rats. Pirfenidone was suspended in 0.5 w/v % CMC and 200 mg/kg thereof was repeatedly administered per os with stirring twice daily for 2 weeks using an oral sonde for rats. To the normal control group and the diseased control group, 0.5 w/v % CMC was repeatedly administered per os according to the same administration schedule. After finishing the administration period, both lungs were excised from the mice and their wet weight was measured.
Compound,Copy Numbers per 10000 Copies of GAPDH CTGF (CTGF gene expression),Copy Numbers per 10000 Copies of GAPDH Fibronectin [1],Copy Numbers per 10000 Copies of GAPDH Col 1 (Col 1 gene expression),Copy Numbers per 10000 Copies of GAPDH TGF-β1 (TGF-β1 gene expression),Wet Lung Weight [2]
"O=c1oc2c(OS(=O)(=O)c3ccc(C(F)(F)F)cc3)cccc2cc1NS(=O)(=O)c1cccc(Br)c1 [Compound 58, 3-[(3-Bromophenyl)sulfonylamino]-2-oxochromen-8-yl 4-(trifluoromethyl)benzenesulfonate]",115.8 copies per 10000 copies of GAP,1827.5 copies per 10000 copies of GAP,525.6 copies per 10000 copies of GAP,704.5 copies per 10000 copies of GAP,
"O=c1oc2c(OS(=O)(=O)c3cccc(Br)c3)cccc2cc1NS(=O)(=O)c1cccc(C(F)(F)F)c1 [Compound 60, 2-Oxo-3-[[3-(trifluoromethyl)phenyl]sulfonylamino]-chromen-8-yl 3-bromobenzenesulfonate]",119.0 copies per 10000 copies of GAP,1446.2 copies per 10000 copies of GAP,650.6 copies per 10000 copies of GAP,707.1 copies per 10000 copies of GAP,250 mg

# Reference: patent US10004716B2, “Therapeutic/ preventive agent containing coumarin derivative as active ingredient” (NIPPON ZOKI PHARMACEUTICAL CO., LTD., priority 2014, dated 2018)
